Experimental data from patent US4948782A, “A method of promoting the growth of domestic animals with erythromycin derivative containing composition” (Kitasato Kenkyusho, priority 1987, dated 1990).

Tests used:
Format in all cases: cell-based
[1] = system: Staphylococcus aureus ATCC 6538P; test: MIC, Staphylococcus aureus ATCC 6538P (SA(1)); conditions: Staphylococcus aureus, ATCC6538P, Staphylococcus aureus ATCC 6538P; read-out: MIC SA (1)
From the text: (§1) The minimum inhibitory concentrations (MIC: mcg/ml) of the erythromycin derivatives of the present invention and the control erythromycin derivative (*) as the known growth promoting agent on typical test bacteria are shown in the following Tables 1 to 5.
SA(1): Staphylococcus aureus ATCC 6538P

[2] = system: Staphylococcus aureus FDA 209P; test: MIC, Staphylococcus aureus FDA 209P (SA(2)); conditions: Staphylococcus aureus, FDA209P, Staphylococcus aureus FDA 209P; read-out: MIC SA (2)
From the text: as §1
SA(2): Staphylococcus aureus FDA 209P

[3] = system: Bacillus subtilis; test: MIC, Bacillus subtilis (BS); conditions: read-out: MIC BS
[4] = system: Bacillus cereus IFO 3001; test: MIC, Bacillus cereus IFO 3001 (BC); conditions: Bacillus cereus, IFO3001, Bacillus cereus IFO 3001; read-out: MIC BC
[5] = system: Escherichia coli NIHJ; test: MIC, Escherichia coli NIHJ (EC)
[6] = system: Klebsiella pneumoniae ATCC 10031; test: MIC, Klebsiella pneumoniae ATCC 10031 (KP); conditions: ATCC10031; Klebsiella pneumoniae ATCC 10031; read-out: MIC KP

SMILES	MIC [1] [µg/mL]	MIC [2] [µg/mL]	MIC [3] [µg/mL]	MIC [4] [µg/mL]	MIC [5] [µg/mL]	MIC [6] [µg/mL]
CC[C@H]1OC(=O)[C@H](C)[C@@H](O[C@H]2C[C@@](C)(OC)[C@@H](O)[C@H](C)O2)[C@H](C)[C@@H](O[C@@H]2O[C@H](C)C[C@H]([N+](C)(C)Cc3ccccc3)[C@H]2O)[C@@]2(C)CC(C)C3(O[C@@]1(C)[C@H](O)[C@H]3C)O2 (stereo partly drawn) [Compound 73]	> 100	> 100	> 100	> 100	> 100	> 100
C#CCN(C)C1CC(C)OC(OC2C(C)C(OC3CC(C)(OC)C(O)C(C)O3)C(C)C(=O)OC(CC)C(C)(O)C(O)C(C)C3=C(C)CC2(C)O3)C1O (stereo not drawn) [Compound 35]	> 100	> 100	> 100	> 100	> 100	> 100
C#CCNC1CC(C)OC(OC2C(C)C(OC3CC(C)(OC)C(O)C(C)O3)C(C)C(=O)OC(CC)C(C)(O)C(O)C(C)C3=C(C)CC2(C)O3)C1O (stereo not drawn) [Compound 41]	> 100	> 100	> 100	> 100	> 100	> 100
C#CC[N+](C)(C)[C@H]1C[C@@H](C)O[C@@H](O[C@@H]2[C@@H](C)[C@H](O[C@H]3C[C@@](C)(OC)[C@@H](O)[C@H](C)O3)[C@@H](C)C(=O)O[C@H](CC)C(C)[C@H](O)[C@@H](C)C3=C(C)C[C@@]2(C)O3)[C@@H]1O (stereo partly drawn) [Compound 75]	100	100	100	100	> 100	> 100
C=CCNC1CC(C)OC(OC2C(C)C(OC3CC(C)(OC)C(O)C(C)O3)C(C)C(=O)OC(CC)C(C)(O)C(O)C(C)C3=C(C)CC2(C)O3)C1O (stereo not drawn) [Compound 39]	> 100	> 100	> 100	> 100	> 100	> 100
C=CC[N+](C)(C)C1CC(C)OC(OC2C(C)C(OC3CC(C)(OC)C(O)C(C)O3)C(C)C(=O)OC(CC)C(C)(O)C(O)C(C)C3=C(C)CC2(C)O3)C1O (stereo not drawn) [Compound 16]	100	> 100	> 100	> 100	> 100	> 100
CCC1OC(=O)C(C)C(OC2CC(C)(OC)C(O)C(C)O2)C(C)C(OC2OC(C)CC(NC)C2O)C2(C)CC(C)=C(O2)C(C)C(O)C1(C)O (stereo not drawn) [Compound 8]	> 100	> 100	> 100	> 100	> 100	> 100
CC[C@H]1OC(=O)[C@H](C)[C@@H](O[C@H]2C[C@@](C)(OC)[C@@H](OC=O)[C@H](C)O2)[C@H](C)[C@@H](O[C@@H]2O[C@H](C)C[C@H]([N+](C)(C)C)[C@H]2O)[C@@]2(C)CC(C)=C(O2)[C@H](C)[C@@H](O)[C@]1(C)O [Compound 58]	> 100	> 100	> 100	> 100	> 100	> 100
CCC1OC(=O)C(C)C(OC2CC(C)(OC)C(O)C(C)O2)C(C)C(OC2OC(C)CC([N+](C)(C)CC)C2O)C2(C)CC(C)=C(O2)C(C)C(O)C1(C)O (stereo not drawn) [Compound 5]	> 100	> 100	> 100	> 100	> 100	> 100
CCCC[N+](C)(C)[C@H]1C[C@@H](C)O[C@@H](O[C@@H]2[C@@H](C)[C@H](O[C@H]3C[C@@](C)(OC)[C@@H](O)[C@H](C)O3)[C@@H](C)C(=O)O[C@H](CC)[C@@](C)(O)[C@H](O)[C@@H](C)C3O[C@]2(C)CC3C)[C@@H]1O (stereo partly drawn) [Compound 65]	100	100	50	100	> 100	> 100
CCC1OC(=O)C(C)C(OC2CC(C)(OC)C(O)C(C)O2)C(C)C(OC2OC(C)CC(N(C)CC)C2O)C2(C)CC(C)=C(O2)C(C)C2OC(=O)OC12C (stereo not drawn) [Compound 54]	> 100	> 100	> 100	> 100	> 100	> 100
